Among the data in US12617797B2, “Substituted pyrazolo [1,5-a]pyrimidines having multimodal activity against pain” (ESTEVE PHARMACEUTICALS, S.A., priority 2020, dated 2026) are Ki values, retold here.

The target of test [1] is Human α2δ-1 subunit of Cav2.2 calcium channel (Homo sapiens, UniProt P54289). Briefly: Human α2δ-1 subunit of Cav2.2 calcium channel assay ([3H]-gabapentin binding). The note with it: binding to the α2δ-1 subunit of voltage-gated calcium channels expressed as Ki; + also covers inhibition between 1% and 50%. As to the method: Biological Activity Pharmacological Study Human α2δ-1 Subunit of Cav2.2 Calcium Channel Assay
Human α2δ-1 subunit of Cav2.2 calcium channel, sequence (P54289 25-1103): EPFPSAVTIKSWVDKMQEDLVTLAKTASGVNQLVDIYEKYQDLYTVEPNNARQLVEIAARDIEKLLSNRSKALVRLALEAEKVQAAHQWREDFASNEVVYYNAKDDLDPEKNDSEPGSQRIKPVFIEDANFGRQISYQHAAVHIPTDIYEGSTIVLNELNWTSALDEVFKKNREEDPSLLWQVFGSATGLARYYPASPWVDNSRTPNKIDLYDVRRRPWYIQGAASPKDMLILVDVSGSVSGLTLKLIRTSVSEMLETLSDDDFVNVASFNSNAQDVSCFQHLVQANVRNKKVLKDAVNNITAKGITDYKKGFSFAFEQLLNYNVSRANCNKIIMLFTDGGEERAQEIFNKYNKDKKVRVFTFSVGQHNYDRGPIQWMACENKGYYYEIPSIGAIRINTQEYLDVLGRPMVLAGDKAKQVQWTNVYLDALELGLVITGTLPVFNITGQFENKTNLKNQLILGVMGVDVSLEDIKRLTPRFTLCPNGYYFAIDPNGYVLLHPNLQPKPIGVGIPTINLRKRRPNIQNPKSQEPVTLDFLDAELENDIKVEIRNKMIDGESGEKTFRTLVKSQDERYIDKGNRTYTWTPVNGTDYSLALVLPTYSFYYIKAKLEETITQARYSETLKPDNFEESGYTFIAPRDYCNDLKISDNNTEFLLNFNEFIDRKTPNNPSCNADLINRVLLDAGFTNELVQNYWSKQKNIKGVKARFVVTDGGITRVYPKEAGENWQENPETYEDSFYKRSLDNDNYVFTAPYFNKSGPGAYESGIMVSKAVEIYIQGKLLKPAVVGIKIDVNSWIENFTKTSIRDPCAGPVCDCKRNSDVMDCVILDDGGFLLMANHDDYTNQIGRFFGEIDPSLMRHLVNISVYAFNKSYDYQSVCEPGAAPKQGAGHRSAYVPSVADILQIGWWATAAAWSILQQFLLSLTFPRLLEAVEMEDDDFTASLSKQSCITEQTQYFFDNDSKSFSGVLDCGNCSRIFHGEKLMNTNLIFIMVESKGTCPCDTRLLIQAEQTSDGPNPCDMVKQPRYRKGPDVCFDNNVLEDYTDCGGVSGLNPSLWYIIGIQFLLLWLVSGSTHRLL
Human α2δ-1 enriched membranes (2.5 μg) were incubated with 15 nM of radiolabeled [^3H]-Gabapentin in assay buffer containing Hepes-KOH 10 mM, pH 7.4. NSB (non specific binding) was measured by adding 10 μM pregabalin. The binding of the test compound was measured at either one concentration (% inhibition at 1 or 10 μM) or five different concentrations to determine affinity values (Ki). After 60 min incubation at 27° C., binding reaction was terminated by filtering through Multiscreen GF/C (Millipore) presoaked in 0.5% polyethyleneimine in Vacuum Manifold Station, followed by 3 washes with ice-cold filtration buffer containing 50 mM Tris-HCl, pH 7.4. Filter plates were dried at 60° C. for 1 h and 30 μL of scintillation cocktail were added to each well before radioactivity reading. Readings were performed in a Trilux 1450 Microbeta radioactive counter (Perkin Elmer).

Another test concerns the target T1, Human σ1 receptor (Homo sapiens, UniProt Q99720).
T1 construct: expressed in transfected cells; host or cells: HEK-293
Nature of the test: Human σ1 receptor radioligand assay ([3H](+)-pentazocine binding, transfected HEK-293 membranes). The note with it: binding to σ1 receptor expressed as Ki; + also covers inhibition between 1% and 50%; read-out: σ-1 binding. The procedure: Human σ1 Receptor Radioligand Assay
Transfected HEK-293 membranes (7 μg) were incubated with 5 nM of [^3H](+)-pentazocine in assay buffer containing Tris-HCl 50 mM at pH 8. NBS (non-specific binding) was measured by adding 10 μM haloperidol. The binding of the test compound was measured at either one concentration (% inhibition at 1 or 10 μM) or five different concentrations to determine affinity values (Ki). Plates were incubated at 37° C. for 120 minutes. After the incubation period, the reaction mix was then transferred to MultiScreen HTS, FC plates (Millipore), filtered and plates were washed 3 times with ice-cold 10 mM Tris-HCL (pH7.4). Filters were dried and counted at approximately 40% efficiency in a MicroBeta scintillation counter (Perkin-Elmer) using EcoScint liquid scintillation cocktail.

T1 sequence (Q99720 whole entry): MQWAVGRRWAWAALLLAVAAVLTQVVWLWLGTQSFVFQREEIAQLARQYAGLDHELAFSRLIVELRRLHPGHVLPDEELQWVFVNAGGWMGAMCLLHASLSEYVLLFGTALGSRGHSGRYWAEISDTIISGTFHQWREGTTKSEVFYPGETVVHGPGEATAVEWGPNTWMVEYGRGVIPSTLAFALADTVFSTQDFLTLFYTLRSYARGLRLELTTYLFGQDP

As to `c1ccc(CNCc2cc3nccc(C4CCCN(Cc5ccccc5)C4)n3n2)cc1` (centres unmarked) [Example 94, N-Benzyl-1-(7-(1-benzylpiperidin-3-yl)pyrazolo[1,5-a]pyrimidin-2-yl)methanamine], the values for the Ki (in test [1]; on Human σ1 receptor) were 500 to 5000 nM and above 1000 nM, respectively.
Take `Cc1nn2c(CC3CCCN(Cc4cccc(Cl)c4)C3)ccnc2c1CN(C)C` (centres unmarked) [Example 252, 1-(7-((1-(3-Chlorobenzyl)piperidin-3-yl)methyl)-2-methylpyrazolo[1,5-a]pyrimidin-3-yl)-N,N-dimethylmethanamine]: the results for the Ki (in test [1]; at Human σ1 receptor) were above 5000 nM and below 500 nM, respectively.
`Oc1ncccc1-c1cc2nccc(C3CCCN(Cc4cccc(Cl)c4)C3)n2n1` (centres unmarked) [Example 117, 3-(7-(1-(3-Chlorobenzyl)piperidin-3-yl)pyrazolo[1,5-a]pyrimidin-2-yl)pyridin-2-ol]: the Ki was above 5000 nM in test [1] and above 1000 nM on Human σ1 receptor.
For the molecule `Cc1nn2c(CC3CCCN(Cc4ccc(Cl)cc4)C3)ccnc2c1-c1ccncc1` (centres unmarked) [Example 249, 7-((1-(4-Chlorobenzyl)piperidin-3-yl)methyl)-2-methyl-3-(pyridin-4-yl)pyrazolo[1,5-a]pyrimidine], the Ki is above 5000 nM in test [1] and below 500 nM on Human σ1 receptor.
In the same order, the values of `Cc1cccc(CN2CCCC(c3ccnc4c(-c5ccncc5)c(C)nn34)C2)c1` (centres unmarked) [Example 77, 2-Methyl-7-(1-(3-methylbenzyl)piperidin-3-yl)-3-(pyridin-4-yl)pyrazolo[1,5-a]pyrimidine] are above 5000 nM and above 1000 nM.
For the molecule `COc1ccncc1-c1cc2nccc(C3CCCN(Cc4ccccc4)C3)n2n1` (centres unmarked) [Example 34, 7-(1-Benzylpiperidin-3-yl)-2-(4-methoxypyridin-3-yl)pyrazolo[1,5-a]pyrimidine], the Ki is 500 to 5000 nM in test [1] and above 1000 nM at Human σ1 receptor.
For `COc1nn2c(C3CCCN(Cc4ccccc4)C3)ccnc2c1CNCC1CCOCC1` (centres unmarked) [Example 248, 1-(7-(1-Benzylpiperidin-3-yl)-2-methoxypyrazolo[1,5-a]pyrimidin-3-yl)-N-((tetrahydro-2H-pyran-4-yl)methyl)methanamine], the Ki in test [1] fell in the range of 500 to 5000 nM; at Human σ1 receptor, 500 to 1000 nM.
In the same order, the values of `Cc1nn2c(C3CCCN(Cc4ccc(Cl)cc4)C3)ccnc2c1CNCC1CC1` (centres unmarked) [Example 157, 1-(7-(1-(4-Chlorobenzyl)piperidin-3-yl)-2-methylpyrazolo[1,5-a]pyrimidin-3-yl)-N-(cyclopropylmethyl)methanamine] are 500 to 5000 nM and below 500 nM.
Taken in the same sequence, the figures for `Cc1nn2c(C3CCCN(Cc4ccc(Cl)cc4)C3)ccnc2c1-c1ccc(C(N)=O)cc1` (centres unmarked) [Example 129, 4-(7-(1-(4-Chlorobenzyl)piperidin-3-yl)-2-methylpyrazolo[1,5-a]pyrimidin-3-yl)benzamide] were above 5000 nM and above 1000 nM.
In the case of `Cc1nn2c(C3CCCN(Cc4ccc(Cl)cc4)C3)ccnc2c1CN(CC1CCOCC1)C(C)C` (centres unmarked) [Example 232, N-((7-(1-(4-Chlorobenzyl)piperidin-3-yl)-2-methylpyrazolo[1,5-a]pyrimidin-3-yl)methyl)-N-((tetrahydro-2H-pyran-4-yl)methyl)propan-2-amine], the Ki in test [1] was above 5000 nM; at Human σ1 receptor it was below 500 nM.
Taken in the same sequence, the figures for `Cc1nn2c(C3CCCN(Cc4ccccc4)C3)ccnc2c1-c1ccccc1F` (centres unmarked) [Example 48, 7-(1-Benzylpiperidin-3-yl)-3-(2-fluorophenyl)-2-methylpyrazolo[1,5-a]pyrimidine] were above 5000 nM and above 1000 nM.
In the same order, the values of `Cc1nn2c([C@H]3CCCN(Cc4ccccc4)C3)ccnc2c1CNC[C@H]1CCN(C)C(=O)C1` [Example 244, (S)-4-((((7-((S)-1-Benzylpiperidin-3-yl)-2-methylpyrazolo[1,5-a]pyrimidin-3-yl)methyl)amino)methyl)-1-methylpiperidin-2-one] are 500 to 5000 nM and above 1000 nM.
In the same order, the values of `Cc1cnc2c(-c3ccncc3)c(C)nn2c1C1CCCN(Cc2ccccc2)C1` (centres unmarked) [Example 58, 7-(1-Benzylpiperidin-3-yl)-2,6-dimethyl-3-(pyridin-4-yl)pyrazolo[1,5-a]pyrimidine] are 500 to 5000 nM and above 1000 nM.
Consider `Cc1nn2c(C3CCCCN(Cc4ccc(Cl)cc4)C3)ccnc2c1CNCC1CCOCC1` (centres unmarked) [Example 253, 1-(7-(1-(4-Chlorobenzyl)azepan-3-yl)-2-methylpyrazolo[1,5-a]pyrimidin-3-yl)-N-((tetrahydro-2H-pyran-4-yl)methyl)methanamine], for which the figures for the Ki (in test [1]; at Human σ1 receptor) were above 5000 nM and below 500 nM, respectively.
On to `COc1ccc(CCNCc2c(C)nn3c(C4CCCN(Cc5ccc(Cl)cc5)C4)ccnc23)cc1` (centres unmarked) [Example 154, N-((7-(1-(4-Chlorobenzyl)piperidin-3-yl)-2-methylpyrazolo[1,5-a]pyrimidin-3-yl)methyl)-2-(4-methoxyphenyl)ethan-1-amine], for which the Ki in test [1] is 500 to 5000 nM; on Human σ1 receptor, 500 to 1000 nM.
For the molecule `c1ccc(CN2CCCC(c3ccnc4cc(-c5ccccn5)nn34)C2)cc1` (centres unmarked) [Example 26, 7-(1-Benzylpiperidin-3-yl)-2-(pyridin-2-yl)pyrazolo[1,5-a]pyrimidine], the results for the Ki (in test [1]; on Human σ1 receptor) were below 500 nM and above 1000 nM, respectively.
Take `Cc1nn2c(C3CCCN(Cc4ccccc4)C3)ccnc2c1N(C)Cc1ccccc1` (centres unmarked) [Example 143, N-Benzyl-7-(1-benzylpiperidin-3-yl)-N,2-dimethylpyrazolo[1,5-a]pyrimidin-3-amine]: the Ki in test [1] is above 5000 nM; at Human σ1 receptor, 500 to 1000 nM.
For `Cc1nn2c(C3CCCN(Cc4ccc(Cl)cc4)C3)ccnc2c1-c1ccncc1` (centres unmarked) [Example 121, 7-(1-(4-Chlorobenzyl)piperidin-3-yl)-2-methyl-3-(pyridin-4-yl)pyrazolo[1,5-a]pyrimidine], the values for the Ki (in test [1]; on Human σ1 receptor) were 500 to 5000 nM and 500 to 1000 nM, respectively.
Taken in the same sequence, the figures for `Cc1cnccc1-c1c(C)nn2c(C3CCCN(Cc4ccccc4)C3)ccnc12` (centres unmarked) [Example 49, 7-(1-Benzylpiperidin-3-yl)-2-methyl-3-(3-methylpyridin-4-yl)pyrazolo[1,5-a]pyrimidine] were above 5000 nM and above 1000 nM.
In the same order, the values of `Clc1cncc(Cl)c1-c1cc2nccc(C3CCCN(Cc4ccccc4)C3)n2n1` (centres unmarked) [Example 18, 7-(1-Benzylpiperidin-3-yl)-2-(3,5-dichloropyridin-4-yl)pyrazolo[1,5-a]pyrimidine] are 500 to 5000 nM and 500 to 1000 nM.
In the same order, the values of `Clc1nn2c([C@@H]3CCCN(Cc4ccccc4)C3)ccnc2c1CNCC1CCOCC1` [Example 215] are above 5000 nM and below 500 nM.
On to `COc1ncccc1-c1cnn2c(C3CCCN(Cc4ccccc4)C3)ccnc12` (centres unmarked) [Example 40, 7-(1-Benzylpiperidin-3-yl)-3-(2-methoxypyridin-3-yl)pyrazolo[1,5-a]pyrimidine], for which the Ki in test [1] is 500 to 5000 nM; on Human σ1 receptor, above 1000 nM.
Turning to `Cc1nn2c(C3CCCN(Cc4ccccc4)C3)ccnc2c1CO` (centres unmarked) [Example 95, (7-(1-Benzylpiperidin-3-yl)-2-methylpyrazolo[1,5-a]pyrimidin-3-yl)methanol], the Ki is above 5000 nM in test [1] and above 1000 nM at Human σ1 receptor.
Taken in the same sequence, the figures for `Cc1nn2c(C3CCCN(CC4CCOCC4)C3)ccnc2c1CNCC1CCOCC1` (centres unmarked) [Example 185, 1-(2-Methyl-7-(1-((tetrahydro-2H-pyran-4-yl)methyl)piperidin-3-yl)pyrazolo[1,5-a]pyrimidin-3-yl)-N-((tetrahydro-2H-pyran-4-yl)methyl)methanamine] were above 5000 nM and above 1000 nM.
`Cc1nn2c([C@@H]3CCCN(Cc4ccc(Cl)cc4)C3)ccnc2c1CN(C)C` [Example 211, (R)-1-(7-(1-(4-chlorobenzyl)piperidin-3-yl)-2-methylpyrazolo[1,5-a]pyrimidin-3-yl)-N,N-dimethylmethanamine]: the Ki in test [1] was above 5000 nM; at Human σ1 receptor, below 500 nM.
On to `Cc1cc2nccc(C3CCCN(CCc4ccccc4)C3)n2n1` (centres unmarked) [Example 67, 2-Methyl-7-(1-phenethylpiperidin-3-yl)pyrazolo[1,5-a]pyrimidine], for which the Ki in test [1] was above 5000 nM; on Human σ1 receptor, above 1000 nM.
For the molecule `CCOc1ccc(-c2c(C)nn3c(C4CCCN(Cc5ccccc5)C4)ccnc23)cc1` (centres unmarked) [Example 45, 7-(1-Benzylpiperidin-3-yl)-3-(4-ethoxyphenyl)-2-methylpyrazolo[1,5-a]pyrimidine], the Ki is above 5000 nM in test [1] and 500 to 1000 nM at Human σ1 receptor.
Taken in the same sequence, the figures for `COc1ncccc1-c1cc2nccc(C3CCCN(Cc4ccccc4)C3)n2n1` (centres unmarked) [Example 27, 7-(1-Benzylpiperidin-3-yl)-2-(2-methoxypyridin-3-yl)pyrazolo[1,5-a]pyrimidine] were 500 to 5000 nM and 500 to 1000 nM.
